{
  "source": "paper PMC12314576",
  "about": "“The Actin‐Binding Prolyl‐Isomerase Par17 Sustains Its Substrate Selectivity by Interdomain Allostery” (Proteins, 2025)",
  "key": {"Par17 [1]": {"molecular_target": "T1, Par17 (Homo sapiens, UniProt Q9Y237)", "T1 construct": "full‐length Par17 and the N‐terminus of Par17; GST-His6 (PreScission site) (N, cleaved yes); Gly-Pro remnant of the PreScission site (Gly stands at position 1 in place of Met1); made in house; host or cells: E. coli BL21 (DE3) T1r", "T1 sequence (Q9Y237 1-156 isoform Q9Y237-2)": "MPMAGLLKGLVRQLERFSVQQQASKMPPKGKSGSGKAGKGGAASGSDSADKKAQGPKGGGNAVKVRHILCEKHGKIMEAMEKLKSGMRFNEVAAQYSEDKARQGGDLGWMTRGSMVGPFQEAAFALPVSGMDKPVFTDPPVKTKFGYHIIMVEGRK", "assay": "NMR titration of substrate peptides to 15N-labeled full-length Par17", "assay_type": "binding", "details": "300 μM Par17, KPi pH 6.7, 20°C", "description": "The amide signals were assigned and combined chemical shift changes between the signals of free and substrate‐bound isomers were calculated.\nFor NMR measurements, purified and concentrated proteins in salt‐free buffers were mixed with 10% D2O and 1 μL DSS standard. Spectra were measured on an ultra shield 700‐NMR (Bruker, Billerica, US) with a triple resonance cryoprobe (700 MHz). For recording and processing of data, the software Topspin 3.5 was used. Analysis of spectra was carried out using Cara analysis software 2.3.1 (Rochus L.J. Keller) and/or CcpNmr Analysis 2.3.1 (Department of Molecular and Cell Biology, University of Leicester, UK).\nTitration of substrate peptides to ^ 15 N‐labeled full‐length Par17 and the N‐terminus of Par17: The following substrate peptides were diluted in salt‐free 50 mM KPi buffer pH 6.7 to a concentration of 15 mM (Suc: Succinyl, pNA: para‐Nitroanilin):\nThey were added stepwise to 200 μL of the labeled parvulins (300 μM in 50 mM KPi buffer pH 6.7). Spectra were recorded with the pulse program Best‐TROSY at 20°C. Combined chemical shifts were calculated as described. Microscopic dissociation constant K D was fitted with the following equation (assuming a 1:1 binding model): (4) ∆δ=∆δmax·P+x+KD−P+x+KD^2−4·x·P/2·P\nwhere ∆δmax is the amplitude, P is the protein concentration, X is the concentration of the peptide.\nDifferences in chemical shift changes could be measured up to 0.001 ppm (error in peak picking). Changes were interpreted as significant if Δ > 0.004 ppm and when appearing consecutively in a linear sequence element.\nThe microscopic K D describes the binding affinity of the ligand to a single side of an amino acid."}, "Par14 (Par17Δ1-25)": {"molecular_target": "T2, Par14 (Par17Δ1-25) (Homo sapiens, UniProt Q9Y237)", "T2 construct": "Comparison of spectra of full‐length parvulin proteins and PPIase domain; GST-His6 (PreScission site) (N, cleaved yes); made in house; host or cells: E. coli BL21 (DE3) T1r", "T2 sequence (Q9Y237 whole entry, stated change not applied, the tested form may be a part)": "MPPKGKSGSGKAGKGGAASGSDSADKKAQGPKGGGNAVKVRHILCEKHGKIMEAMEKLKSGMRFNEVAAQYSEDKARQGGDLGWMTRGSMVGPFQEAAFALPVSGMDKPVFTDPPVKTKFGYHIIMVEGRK", "assay": "Protease-coupled isomerase assay (PPIase assay) with Par14", "assay_type": "biochemical", "details": "PBS pH 6.8, 10°C, PPIase 2 μM; for k = kobserved - kthermic, Par14 (Par17Δ1-25): α-chymotrypsin 35 μM, substrate 75 μM, absorbance 390 nm, mean ± SD", "description": "(§1) To determine the catalytic efficiency and substrate specificity of Par14 and Par17, we performed a protease‐coupled assay. In this assay, the trans form of a para‐nitroaniline (pNA) tagged model substrate is cleaved by chymotrypsin, and the resulting change in absorption at 390 nm due to free pNA is measured. When the model substrate is added to the protease‐containing buffer, all trans‐Xaa‐Pro isomers are immediately cleaved by chymotrypsin. Therefore, the extent of the first signal burst observed in the absorption spectrum correlates with the amount of trans isomers of the model substrate formed during the experimental dead time. The remaining cis‐Xaa substrates now start to isomerize by thermal (in the absence of PPIase) or catalytic reaction (in the presence of PPIase). The newly formed trans‐Xaa substrates are immediately cleaved, and isomerization can thus be monitored over time (Figure 2). Eighteen different substrate peptides with varying amino acids at the Xaa position (Suc‐Ala‐Xaa‐Pro‐Phe‐pNa) were measured to determine the isomerase activity and substrate selectivity of Par14 (Par17Δ1–25), Par17, and the catalytic domain (Par17Δ1–60) (Table S1). The catalytic efficiency is obtained from the observed isomerization curves by calculating the difference between the rate constant in the presence of enzyme and the rate constant obtained from thermal isomerization.\n(§2) We determined the isomerase activity using the PPIase assay described by. The lyophilized peptides were dissolved in an adequate volume of 0.5 mM‐LiCl/TFE buffer to obtain a 15 mM stock solution. To achieve a stable cis/trans ratio the mixture was incubated overnight at 4°C. The next day a stock solution of 350 μM α‐chymotrypsin in PBS was incubated on ice for at least 20 min. For measurements without PPIase PBS buffer (pH 6.8) was mixed with α‐chymotrypsin to a final concentration of 35 μM in 1 mL. A baseline was recorded for 5 min (Cary 100Bio UV/Vis spectrophotometer, Varian/Agilent, Santa Clara, US, λ: 390 nm, bandwidth: 1.0 nm, average time between measurements: 0.5 s, temperature: 10°C). After 5 min the substrate peptide was added to a final concentration of 75 μM in 1 mL [59]. The solution was mixed by inverting the cuvette three times and the reaction was recorded for 15 min. Measurements in the presence of PPIase were performed in the same way, except that before the baseline measurement, the appropriate isomerase was added in a final concentration of 2 μM in 1 mL in addition to PBS and α‐chymotrypsin.\n(§3) For the data analysis, a mean value of the baseline was subtracted (average of the first 200 data points). The measured values were normalized according to the respective maximum of the measurement. To determine the rate constant, the program graph pad was used, and non‐linear curve fitting was applied for each measurement (exponential, one‐phase association). (1) Y=Y0+Plateau−Y0∙1−e^−K∙x\n(§4) where x is the time (min), Y is the absorbance, Y 0 is the absorbance when x = 0, Plateau is the Y value at infinite times, K is the rate constant (min^−1).\n(§5) The K cat/K M value was calculated according to Equation (2): (2) kcat/KM=kobs−ktherm/PPIase where k cat/K M is the catalytic efficiency (M^−1 s^−1), k obs, rate constant of the observed reaction (s^−1), k therm is the rate constant of the thermic reaction (s^−1), and [PPIase] is the concentration of PPIase used in the assay (M).\n(§6) The obtained data are fitted to Equation (2) using a pseudo first‐order assumption. This is the case, if k obs values behave linearly with rising PPIase concentrations."}, "Par17 [2]": {"molecular_target": "T1, Par17", "assay": "Protease-coupled isomerase assay (PPIase assay) with Par17", "assay_type": "biochemical", "details": "PBS pH 6.8, 10°C, PPIase 2 μM; for k = kobserved - kthermic, Par17: α-chymotrypsin 35 μM, substrate 75 μM, absorbance 390 nm, mean ± SD", "description": "as §1, §2, §3, §4, §5, §6"}, "[3]": {"molecular_target": "T3, PPIase domain (Par17Δ1-60) (Homo sapiens, UniProt Q9Y237)", "T3 construct": "GST-His6 (PreScission site) (N, cleaved yes); made in house; host or cells: E. coli BL21 (DE3) T1r", "T3 sequence (Q9Y237 36-131, stated change not applied)": "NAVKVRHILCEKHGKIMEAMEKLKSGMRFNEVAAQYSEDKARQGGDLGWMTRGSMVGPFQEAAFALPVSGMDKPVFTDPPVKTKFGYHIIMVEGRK", "assay": "Protease-coupled isomerase assay (PPIase assay) with the catalytic domain", "assay_type": "biochemical", "details": "PBS pH 6.8, 10°C, PPIase 2 μM; for k = kobserved - kthermic, PPIase domain (Par17Δ1-60): α-chymotrypsin 35 μM, substrate 75 μM, absorbance 390 nm, mean ± SD", "description": "as §1, §2, §3, §4, §5, §6"}, "[4]": {"details": "Table ST1, (kobs−ktherm)/[PPIase]"}},
  "note": "Starred links: 1 amine or outer side, 2 acyl side, 3 side chain; linkers in the order of their positions; H or OH if unused. Residues, ends and D or L forms follow the SMILES beside them. *: point of attachment. pNA = O=[N+]([O-])c1ccc(N*)cc1; Suc = O=C(CCC(=O)[*:2])[*:1]",
  "data": [
    {"compound": "C[C@H](NC(=O)CCC(=O)O)C(=O)NCC(=O)N1CCC[C@H]1C(=O)N[C@@H](Cc1ccccc1)C(=O)Nc1ccc([N+](=O)[O-])cc1", "note": "[Gly, Suc‐Ala‐Gly‐Pro‐Phe‐pNa] (Suc-AGPF-pNA)", "values": [
      {"measurement": "Combined chemical shift perturbation of full length Par17, 113G", "setting": "Par17 [1]; peptide 0,35 mM", "value": "0,014 ppm"},
      {"measurement": "Combined chemical shift perturbation of full length Par17, 116V", "setting": "Par17 [1]; peptide 0,35 mM", "value": "0,038 ppm"},
      {"measurement": "Combined chemical shift perturbation of full length Par17, 119F", "setting": "Par17 [1]; peptide 0,35 mM", "value": "0,012 ppm"},
      {"measurement": "Combined chemical shift perturbation of full length Par17, 113G", "setting": "Par17 [1]; peptide 3 mM", "value": "0,116 ppm"},
      {"measurement": "Combined chemical shift perturbation of full length Par17, 115M", "setting": "Par17 [1]; peptide 3 mM", "value": "0,06 ppm"},
      {"measurement": "Combined chemical shift perturbation of full length Par17, 116V", "setting": "Par17 [1]; peptide 3 mM", "value": "0,302 ppm"},
      {"measurement": "Combined chemical shift perturbation of full length Par17, 119F", "setting": "Par17 [1]; peptide 3 mM", "value": "0,084 ppm"},
      {"measurement": "Combined chemical shift perturbation of full length Par17, 113G", "setting": "Par17 [1]; peptide 5 mM", "value": "0,157 ppm"},
      {"measurement": "Combined chemical shift perturbation of full length Par17, 115M", "setting": "Par17 [1]; peptide 5 mM", "value": "0,081 ppm"},
      {"measurement": "Combined chemical shift perturbation of full length Par17, 116V", "setting": "Par17 [1]; peptide 5 mM", "value": "0,412 ppm"},
      {"measurement": "Combined chemical shift perturbation of full length Par17, 119F", "setting": "Par17 [1]; peptide 5 mM", "value": "0,113 ppm"},
      {"measurement": "Combined chemical shift perturbation of full length Par17, 113G", "setting": "Par17 [1]; peptide 1,5 mM", "value": "0,066 ppm"},
      {"measurement": "Combined chemical shift perturbation of full length Par17, 115M", "setting": "Par17 [1]; peptide 1,5 mM", "value": "0,035 ppm"},
      {"measurement": "Combined chemical shift perturbation of full length Par17, 116V", "setting": "Par17 [1]; peptide 1,5 mM", "value": "0,173 ppm"},
      {"measurement": "Combined chemical shift perturbation of full length Par17, 119F", "setting": "Par17 [1]; peptide 1,5 mM", "value": "0,05 ppm"},
      {"measurement": "k = kobserved - kthermic, Par14 (Par17Δ1-25)", "setting": "Par14 (Par17Δ1-25)", "value": "0.390 ± 0.457", "unit": "min⁻¹"},
      {"measurement": "k = kobserved - kthermic, Par17", "setting": "Par17 [2]", "value": "<0.01 ± 0.029", "unit": "min⁻¹"},
      {"measurement": "k = kobserved - kthermic, PPIase domain (Par17Δ1-60)", "setting": "[3]", "value": "0.275 ± 0.214", "unit": "min⁻¹"}
    ]},
    {"compound": "Suc-Ala-Ser-Pro-Phe-pNa [model substrate peptide, Xaa = Ser]", "values": [
      {"measurement": "kcat/KM, Par14 (Par17Δ1-25)", "setting": "Par14 (Par17Δ1-25); [4]", "value": 2.7, "unit": "M^-1·s^-1 · 10^3"},
      {"measurement": "k = kobserved - kthermic, Par14 (Par17Δ1-25)", "setting": "Par14 (Par17Δ1-25)", "value": "0.332 ± 0.054", "unit": "min⁻¹"},
      {"measurement": "kcat/KM, Par17", "setting": "Par17 [2]; [4]", "value": "<0.1", "unit": "M^-1·s^-1 · 10^3"},
      {"measurement": "k = kobserved - kthermic, Par17", "setting": "Par17 [2]", "value": "<0.01 ± 0.098", "unit": "min⁻¹"},
      {"measurement": "kcat/KM, PPIase domain (Par17Δ1-60)", "setting": "[3]; [4]", "value": 2.7, "unit": "M^-1·s^-1 · 10^3"},
      {"measurement": "k = kobserved - kthermic, PPIase domain (Par17Δ1-60)", "setting": "[3]", "value": "0.327 ± 0.273", "unit": "min⁻¹"}
    ]}
  ]
}
